The record followed here is US20250235543A1, “MODIFIED PROTEINS AND PROTEIN DEGRADERS” (Cullgen (Shanghai), Inc., priority 2021, published 2025).

This test has as its system P300/CBP. Nature of the test: P300/CBP cellular protein degradation. Type of test: cell-based. The protocol:
Cultured cells were washed with cold PBS once and lysed in cold RIPA buffer supplemented with protease inhibitors and phosphatase inhibitors (Beyotime Biotechnology). The solutions were then incubated at 4° C. for 30 min with gentle agitation to fully lysed cells. Cell lysates were centrifuged at 13,000 rpm for 10 min at 4° C. and pellets were discarded. Total protein concentrations in the lysates were determined following BCA assays (Beyotime Biotechnology). Cell lysates were mixed with Laemmli loading buffer and heated at 99° C. for 5 min. Proteins were resolved on SDS-PAGE and visualized using Western ECL Substrate kits on a ChemiDoc MP Imaging system (Bio-Rad). Protein bands were quantitated using the Image Lab software provided by Bio-Rad.

With `CC(=O)N1CCc2c(c(N3CCCc4cc(-c5cnn(C)c5)c(C(F)F)cc43)nn2C2CCN(CC(=O)NCCOCCNc3ccc(C(=O)Nc4ncc(C)s4)c(C)c3)CC2)C1` [CPD-197, 4-((2-(2-(2-(4-(5-Acetyl-3-(7-(difluoromethyl)-6-(1-methyl-1H-pyrazol-4-yl)-3,4-dihydroquinolin-1(2H)-yl)-4,5,6,7-tetrahydro-1H-pyrazolo[4,3-c]pyridin-1-yl)piperidin-1-yl)acetamido)ethoxy)ethyl)amino)-2-methyl-N-(5-methylthiazol-2-yl)benzamide], the “P300/CBP Degradation (100 nM)” value is recorded as “D (degradation activity < 30%)”. The same measure for `CC(=O)N1CCc2c(c(N3CCCc4cc(-c5cnn(C)c5)c(C(F)F)cc43)nn2C2CCN(CC(=O)NCCOCCOCCNc3ccc(C(=O)Nc4ncc(C)s4)c(C)c3)CC2)C1` [CPD-198, 4-((2-(2-(2-(2-(4-(5-Acetyl-3-(7-(difluoromethyl)-6-(1-methyl-1H-pyrazol-4-yl)-3,4-dihydroquinolin-1(2H)-yl)-4,5,6,7-tetrahydro-1H-pyrazolo[4,3-c]pyridin-1-yl)piperidin-1-yl)acetamido)ethoxy)ethoxy)ethyl)amino)-2-methyl-N-(5-methylthiazol-2-yl)benzamide]: “D (degradation activity < 30%)”. For `CC(=O)N1CCc2c(c(N3CCCc4cc(-c5cnn(C)c5)c(C(F)F)cc43)nn2C2CCN(C(=O)CCC(=O)Nc3ccccc3C(=O)Nc3nc(C)c([N+](=O)[O-])s3)CC2)C1` [CPD-199, 2-(4-(4-(5-Acetyl-3-(7-(difluoromethyl)-6-(1-methyl-1H-pyrazol-4-yl)-3,4-dihydroquinolin-1(2H)-yl)-4,5,6,7-tetrahydro-1H-pyrazolo[4,3-c]pyridin-1-yl)piperidin-1-yl)-4-oxobutanamido)-N-(4-methyl-5-nitrothiazol-2-yl)benzamide], the “P300/CBP Degradation (100 nM)” value was “D (degradation activity < 30%)”. Then `CC(=O)N1CCc2c(c(N3CCCc4cc(-c5cnn(C)c5)c(C(F)F)cc43)nn2C2CCN(C(=O)CCCC(=O)Nc3ccccc3C(=O)Nc3nc(C)c([N+](=O)[O-])s3)CC2)C1` [CPD-200, 2-(5-(4-(5-Acetyl-3-(7-(difluoromethyl)-6-(1-methyl-1H-pyrazol-4-yl)-3,4-dihydroquinolin-1(2H)-yl)-4,5,6,7-tetrahydro-1H-pyrazolo[4,3-c]pyridin-1-yl)piperidin-1-yl)-5-oxopentanamido)-N-(4-methyl-5-nitrothiazol-2-yl)benzamide], with “D (degradation activity < 30%)”; and `CC(=O)N1CCc2c(c(N3CCCc4cc(-c5cnn(C)c5)c(C(F)F)cc43)nn2C2CCN(C(=O)CCCCC(=O)Nc3ccccc3C(=O)Nc3nc(C)c([N+](=O)[O-])s3)CC2)C1` [CPD-201, 2-(6-(4-(5-Acetyl-3-(7-(difluoromethyl)-6-(1-methyl-1H-pyrazol-4-yl)-3,4-dihydroquinolin-1(2H)-yl)-4,5,6,7-tetrahydro-1H-pyrazolo[4,3-c]pyridin-1-yl)piperidin-1-yl)-6-oxohexanamido)-N-(4-methyl-5-nitrothiazol-2-yl)benzamide], with “D (degradation activity < 30%)”. The same measure for `CC(=O)N1CCc2c(c(N3CCCc4cc(-c5cnn(C)c5)c(C(F)F)cc43)nn2C2CCN(C(=O)CCCCCC(=O)Nc3ccccc3C(=O)Nc3nc(C)c([N+](=O)[O-])s3)CC2)C1` [CPD-202, 2-(7-(4-(5-Acetyl-3-(7-(difluoromethyl)-6-(1-methyl-1H-pyrazol-4-yl)-3,4-dihydroquinolin-1(2H)-yl)-4,5,6,7-tetrahydro-1H-pyrazolo[4,3-c]pyridin-1-yl)piperidin-1-yl)-7-oxoheptanamido)-N-(4-methyl-5-nitrothiazol-2-yl)benzamide]: “D (degradation activity < 30%)”; for `CC(=O)N1CCc2c(c(N3CCCc4cc(-c5cnn(C)c5)c(C(F)F)cc43)nn2C2CCN(C(=O)CCCCCCC(=O)Nc3ccccc3C(=O)Nc3nc(C)c([N+](=O)[O-])s3)CC2)C1` [CPD-203, 2-(8-(4-(5-Acetyl-3-(7-(difluoromethyl)-6-(1-methyl-1H-pyrazol-4-yl)-3,4-dihydroquinolin-1(2H)-yl)-4,5,6,7-tetrahydro-1H-pyrazolo[4,3-c]pyridin-1-yl)piperidin-1-yl)-8-oxooctanamido)-N-(4-methyl-5-nitrothiazol-2-yl)benzamide]: “D (degradation activity < 30%)”. On to `CC(=O)N1CCc2c(c(N3CCCc4cc(-c5cnn(C)c5)c(C(F)F)cc43)nn2C2CCN(C(=O)CCCCCCCC(=O)Nc3ccccc3C(=O)Nc3nc(C)c([N+](=O)[O-])s3)CC2)C1` [CPD-204, 2-(9-(4-(5-Acetyl-3-(7-(difluoromethyl)-6-(1-methyl-1H-pyrazol-4-yl)-3,4-dihydroquinolin-1(2H)-yl)-4,5,6,7-tetrahydro-1H-pyrazolo[4,3-c]pyridin-1-yl)piperidin-1-yl)-9-oxononanamido)-N-(4-methyl-5-nitrothiazol-2-yl)benzamide], for which the “P300/CBP Degradation (100 nM)” value is listed as “D (degradation activity < 30%)”. The same measure for `CC(=O)N1CCc2c(c(N3CCCc4cc(-c5cnn(C)c5)c(C(F)F)cc43)nn2C2CCN(C(=O)CCCCCCCCC(=O)Nc3ccccc3C(=O)Nc3nc(C)c([N+](=O)[O-])s3)CC2)C1` [CPD-205, 2-(10-(4-(5-Acetyl-3-(7-(difluoromethyl)-6-(1-methyl-1H-pyrazol-4-yl)-3,4-dihydroquinolin-1(2H)-yl)-4,5,6,7-tetrahydro-1H-pyrazolo[4,3-c]pyridin-1-yl)piperidin-1-yl)-10-oxodecanamido)-N-(4-methyl-5-nitrothiazol-2-yl)benzamide]: “D (degradation activity < 30%)”; for `CC(=O)N1CCc2c(c(N3CCCc4cc(-c5cnn(C)c5)c(C(F)F)cc43)nn2C2CCN(C(=O)CCCCCCCCCC(=O)Nc3ccccc3C(=O)Nc3nc(C)c([N+](=O)[O-])s3)CC2)C1` [CPD-206, 2-(11-(4-(5-Acetyl-3-(7-(difluoromethyl)-6-(1-methyl-1H-pyrazol-4-yl)-3,4-dihydroquinolin-1(2H)-yl)-4,5,6,7-tetrahydro-1H-pyrazolo[4,3-c]pyridin-1-yl)piperidin-1-yl)-11-oxoundecanamido)-N-(4-methyl-5-nitrothiazol-2-yl)benzamide]: “D (degradation activity < 30%)”.

Take `CC(=O)N1CCc2c(c(N3CCCc4cc(-c5cnn(C)c5)c(C(F)F)cc43)nn2C2CCN(C(=O)CCCCCCCCCCC(=O)Nc3ccccc3C(=O)Nc3nc(C)c([N+](=O)[O-])s3)CC2)C1` [CPD-207, 2-(12-(4-(5-Acetyl-3-(7-(difluoromethyl)-6-(1-methyl-1H-pyrazol-4-yl)-3,4-dihydroquinolin-1(2H)-yl)-4,5,6,7-tetrahydro-1H-pyrazolo[4,3-c]pyridin-1-yl)piperidin-1-yl)-12-oxododecanamido)-N-(4-methyl-5-nitrothiazol-2-yl)benzamide]: the “P300/CBP Degradation (100 nM)” value was “D (degradation activity < 30%)”.

On to `CC(=O)N1CCc2c(c(N3CCCc4cc(-c5cnn(C)c5)c(C(F)F)cc43)nn2C2CCN(C(=O)CCCCCCCCCCCC(=O)Nc3ccccc3C(=O)Nc3nc(C)c([N+](=O)[O-])s3)CC2)C1` [CPD-208, 2-(13-(4-(5-Acetyl-3-(7-(difluoromethyl)-6-(1-methyl-1H-pyrazol-4-yl)-3,4-dihydroquinolin-1(2H)-yl)-4,5,6,7-tetrahydro-1H-pyrazolo[4,3-c]pyridin-1-yl)piperidin-1-yl)-13-oxotridecanamido)-N-(4-methyl-5-nitrothiazol-2-yl)benzamide], for which the “P300/CBP Degradation (100 nM)” value is recorded as “D (degradation activity < 30%)”. The same measure for `CC(=O)N1CCc2c(c(N3CCCc4cc(-c5cnn(C)c5)c(C(F)F)cc43)nn2C2CCN(CC(=O)NCC(=O)Nc3ccccc3C(=O)Nc3nc(C)c([N+](=O)[O-])s3)CC2)C1` [CPD-209, 2-(2-(2-(4-(5-Acetyl-3-(7-(difluoromethyl)-6-(1-methyl-1H-pyrazol-4-yl)-3,4-dihydroquinolin-1(2H)-yl)-4,5,6,7-tetrahydro-1H-pyrazolo[4,3-c]pyridin-1-yl)piperidin-1-yl)acetamido)acetamido)-N-(4-methyl-5-nitrothiazol-2-yl)benzamide]: “D (degradation activity < 30%)”; for `CC(=O)N1CCc2c(c(N3CCCc4cc(-c5cnn(C)c5)c(C(F)F)cc43)nn2C2CCN(CC(=O)NCCC(=O)Nc3ccccc3C(=O)Nc3nc(C)c([N+](=O)[O-])s3)CC2)C1` [CPD-210, 2-(3-(2-(4-(5-Acetyl-3-(7-(difluoromethyl)-6-(1-methyl-1H-pyrazol-4-yl)-3,4-dihydroquinolin-1(2H)-yl)-4,5,6,7-tetrahydro-1H-pyrazolo[4,3-c]pyridin-1-yl)piperidin-1-yl)acetamido)propanamido)-N-(4-methyl-5-nitrothiazol-2-yl)benzamide]: “D (degradation activity < 30%)”; for `CC(=O)N1CCc2c(c(N3CCCc4cc(-c5cnn(C)c5)c(C(F)F)cc43)nn2C2CCN(CC(=O)NCCCC(=O)Nc3ccccc3C(=O)Nc3nc(C)c([N+](=O)[O-])s3)CC2)C1` [CPD-211, 2-(4-(2-(4-(5-Acetyl-3-(7-(difluoromethyl)-6-(1-methyl-1H-pyrazol-4-yl)-3,4-dihydroquinolin-1(2H)-yl)-4,5,6,7-tetrahydro-1H-pyrazolo[4,3-c]pyridin-1-yl)piperidin-1-yl)acetamido)butanamido)-N-(4-methyl-5-nitrothiazol-2-yl)benzamide]: “D (degradation activity < 30%)”. Then `CC(=O)N1CCc2c(c(N3CCCc4cc(-c5cnn(C)c5)c(C(F)F)cc43)nn2C2CCN(CC(=O)NCCCCC(=O)Nc3ccccc3C(=O)Nc3nc(C)c([N+](=O)[O-])s3)CC2)C1` [CPD-212, 2-(5-(2-(4-(5-Acetyl-3-(7-(difluoromethyl)-6-(1-methyl-1H-pyrazol-4-yl)-3,4-dihydroquinolin-1(2H)-yl)-4,5,6,7-tetrahydro-1H-pyrazolo[4,3-c]pyridin-1-yl)piperidin-1-yl)acetamido)pentanamido)-N-(4-methyl-5-nitrothiazol-2-yl)benzamide], with “D (degradation activity < 30%)”.
